26 molecules from patent US8163766B2, “Beta-secretase modulators and methods of use” (Amgen Inc., priority 2005, dated 2012) can be followed below.

Bounds are passed on as bounds.

In the assay the test system is Aβ 40 in conditioned media of cells stably expressing Amyloid Precursor Protein (APP). Briefly: BACE Cell-Based Assay (Aβ40 in conditioned medium, sandwich ELISA). The settings on record: 24 hours of incubation with the test compounds, Aβ 40 by sandwich ELISA, read-out: IC50 values in the cell-based assay (inhibition of Aβ 40). The protocol: The cell-based assay measures inhibition or reduction of Aβ40 in conditioned medium of test compound treated cells, which express amyloid precursor protein.
Cells stably expressing Amyloid Precursor Protein (APP) were plated at a density of 40K cells/well in 96 well plates (Costar). The cells were cultivated for 24 h at 37° C. and 5% CO2 in DMEM supplemented with 10% FBS. The test compounds were then added to cells in 10-point dose response concentrations with the starting concentration being either 100 μM or 10 μM. The compounds were diluted from stock solutions in DMSO and the final DMSO concentration of the test compounds on cells was 0.1%. After 24 hours of incubation with the test compounds the supernatant conditioned media was collected and the Aβ 40 levels were determined using a sandwich ELISA. The IC50 of the compound was calculated from the percent of control or percent inhibition of Aβ 40 as a function of the concentration of the test compound.
The sandwich ELISA to detect Aβ 40 was performed in 96 well microtiter plates, which were pre-treated with goat anti-rabbit IgG (Pierce). The capture and detecting antibody pair that were used to detect Aβ 40 from cell supernatants were affinity purified pAb40 (Biosource) and biotinylated 6E10 (Signet Labs Inc.), respectively. The optimal concentration for the pAb40 antibody was 3 μg/ml in Superblock/TBS (Pierce) that was supplemented with 0.05% Tween 20 (Sigma). Optimal concentration for the detection antibody 6E10-biotinylated was […] in Superblock/TBS (Pierce) that had been supplemented with 2% normal goat serum and 2% normal mouse serum.
Cellular supernatants were incubated with the capture antibody for 3 h at 4° C., followed by 3 wash steps in TBS-tween (0.05%). The detecting antibody incubation was for 2 h at 4° C., again followed by the wash steps as described previously. The final readout of the ELISA is Time-Resolved Fluorescence (counts per minute) using Delfia reagents Streptavidin-Europium and Enhancement solutions (Perkin Elmer) and the Victor 2 multilabel counter (Perkin Elmer).
As usually defined, the IC50 is the concentration that gives 50% inhibition. As for `CCc1ccc2c(c1)C(NC[C@@H](O)[C@H](Cc1ccccc1)NC(=O)c1cc(C#N)c(=O)n(C3CCCC3)c1)CC1(CCCC1)O2` (some centres unmarked) [Example 1], the IC50 was not above 5 µM.
The result for `CCc1ccc2c(c1)C(NC[C@@H](O)[C@H](Cc1ccccc1)NC(=O)c1ccc(=O)n(C3CCCC3)c1)CC1(CCCC1)O2` (some centres unmarked) [Example 2] reads not above 5 µM; that for `CCc1ccc2c(c1)C(NC[C@@H](O)[C@H](Cc1ccccc1)NC(=O)c1cc(-c3ccccc3F)c(=O)n(C3CCCC3)c1)CC1(CCCC1)O2` (some centres unmarked) [Example 3], not above 5 µM.
`CCc1ccc2c(c1)C(NC[C@@H](O)[C@H](Cc1ccccc1)NC(=O)c1cc(-c3ccccn3)c(=O)n(C3CCCC3)c1)CC1(CCCC1)O2` (some centres unmarked) [Example 5]: the IC50 was not above 5 µM.
The figure for `CCc1ccc2c(c1)C(NC[C@@H](O)[C@H](Cc1ccccc1)NC(=O)c1cc(-n3cccn3)c(=O)n(C3CCCC3)c1)CC1(CCCC1)O2` (some centres unmarked) [Example 6] is not above 5 µM; for `CCc1ccc2c(c1)C(NC[C@@H](O)[C@H](Cc1ccccc1)NC(=O)c1cc(-c3ccc(F)cc3)c(=O)n(C3CCCC3)c1)CC1(CCCC1)O2` (some centres unmarked) [Example 7] it is not above 5 µM; for `CCc1ccc2c(c1)C(NC[C@@H](O)[C@H](Cc1ccccc1)NC(=O)c1cc(-c3ccccc3)c(=O)n(C3CCCC3)c1)CC1(CCCC1)O2` (some centres unmarked) [Example 8] it is not above 5 µM.
As to `CCc1ccc2c(c1)C(NC[C@@H](O)[C@H](Cc1ccccc1)NC(=O)c1cc(-c3cccc(F)c3)c(=O)n(C3CCCC3)c1)CC1(CCCC1)O2` (some centres unmarked) [Example 9], the IC50 is not above 5 µM.
The figure for `CCc1ccc2c(c1)C(NC[C@@H](O)[C@H](Cc1ccccc1)NC(=O)c1ccc(=O)n(C3CCC(c4ccccc4)C3)c1)CC1(CCCC1)O2` (some centres unmarked) [Example 10] is not above 5 µM; for `CCc1ccc2c(c1)C(NC[C@@H](O)[C@H](Cc1ccccc1)NC(=O)c1ccc(=O)n(C3CCCC(c4ccccc4)C3)c1)CC1(CCCC1)O2` (some centres unmarked) [Example 12] it is not above 5 µM.
The figure for `CCc1ccc2c(c1)C(NC[C@@H](O)[C@H](Cc1ccccc1)NC(=O)c1cc(-c3cccnc3)c(=O)n(C3CCCC3)c1)CC1(CCCC1)O2` (stereo partly drawn) [Example 14, 1-cyclopentyl-N-((2S,3R)-4-(6-ethyl-2,2-spirocyclopentylchroman-4-ylamino)-3-hydrodroxy-1-phenylbutan-2-yl)-6-OXO-5-(pyridine-3-yl)-1,6-dihydropyridine-3-carboxamide] is not above 5 µM; for `CCc1ccc2c(c1)C(NC[C@@H](O)[C@H](Cc1ccccc1)NC(=O)c1cc(-c3ccncc3)c(=O)n(C3CCCC3)c1)CC1(CCCC1)O2` (stereo partly drawn) [Example 15, 1-cyclopentyl-N-((2S,3R)-4-(6-ethyl-2,2-spirocyclopentylchroman-4-ylamino)-3-hydrodroxy-1-phenylbutan-2-yl)-6-OXO-5-(pyridin-4-yl)-1,6-dihydropyridine-3-carboxamide] it is not above 5 µM; for `CCc1ccc2c(c1)C(NC[C@@H](O)[C@H](Cc1ccccc1)NC(=O)c1cc(-c3cncnc3)c(=O)n(C3CCCC3)c1)CC1(CCCC1)O2` (stereo partly drawn) [Example 16, 1-cyclopentyl-N-((2S,3R)-4-(6-ethyl-2,2-spirocyclopentylchroman-4-ylamino)-3-hydrodroxy-1-phenylbutan-2-yl)-6-OXO-5-(pyrimidin-5-yl)-1,6-dihydropyridine-3-carboxamide] it is not above 5 µM.
The result for `CCc1ccc2c(c1)C(NC[C@@H](O)[C@H](Cc1ccccc1)NC(=O)c1cc(N3CCCC3)c(=O)n(C3CCCC3)c1)CC1(CCCC1)O2` (stereo partly drawn) [Example 17, 1-cyclopentyl-N-((2S,3R)-4-(6-ethyl-2,2-spirocyclopentylchroman-4-ylamino)-3-hydrodroxy-1-phenylbutan-2-yl)-6-OXO-5-(pyrrolidin-1-yl)-1,6-dihydropyridine-3-carboxamide] reads not above 5 µM.
In the case of `CCc1ccc2c(c1)C(NC[C@@H](O)[C@H](Cc1ccccc1)NC(=O)c1cc(NC(C)C)c(=O)n(C3CCCC3)c1)CC1(CCCC1)O2` (stereo partly drawn) [Example 18, 1-cyclopentyl-N-((2S,3R)-4-(6-ethyl-2,2-spirocyclopentylchroman-4-ylamino)-3-hydrodroxy-1-phenylbutan-2-yl)-5-(isopropylamino)-6-oxo-1,6-dihydropyridine-3-carboxamide], the IC50 was not above 5 µM.
The result for `CCc1ccc2c(c1)C(NC[C@@H](O)[C@H](Cc1ccccc1)NC(=O)c1cc(N(C)C)c(=O)n(C3CCCC3)c1)CC1(CCCC1)O2` (stereo partly drawn) [Example 19, 1-cyclopentyl-5-(dimethylamino)-N-((2S,3R)-4-(6-ethyl-2,2-spirocyclopentylchroman-4-ylamino)-3-hydrodroxy-1-phenylbutan-2-yl)-6-oxo-1,6-dihydropyridine-3-carboxamide] reads not above 5 µM; that for `CCc1ccc2c(c1)C(NC[C@@H](O)[C@H](Cc1ccccc1)NC(=O)c1cc(-c3cnccn3)c(=O)n(C3CCCC3)c1)CC1(CCCC1)O2` (stereo partly drawn) [Example 22, 1-cyclopentyl-N-((2S,3R)-4-(6-ethyl-2,2-spirocyclopentylchroman-4-ylamino)-3-hydrodroxy-1-phenylbutan-2-yl)-6-oxo-5-(pyrazin-2-yl)-1,6-dihydropyridine-3-carboxamide], not above 5 µM; that for `CCc1ccc2c(c1)C(NC[C@@H](O)[C@H](Cc1ccccc1)NC(=O)c1cc(C3CCCCO3)c(=O)n(C3CCCC3)c1)CC1(CCCC1)O2` (stereo partly drawn) [Example 23, 1-cyclopentyl-N-((2S,3R)-4-(6-ethyl-2,2-spirocyclopentylchroman-4-ylamino)-3-hydrodroxy-1-phenylbutan-2-yl)-6-OXO-5-(tetrahydro-2H-pyran-2-yl)-1,6-dihydropyridine-3-carboxamide], not above 5 µM.
The figure for `CCc1ccc2c(c1)C(NC[C@@H](O)[C@H](Cc1ccccc1)NC(=O)c1cc(C3CCCO3)c(=O)n(C3CCCC3)c1)CC1(CCCC1)O2` (stereo partly drawn) [Example 24, 1-cyclopentyl-N-((2S,3R)-4-(6-ethyl-2,2-spirocyclopentylchroman-4-ylamino)-3-hydrodroxy-1-phenylbutan-2-yl)-6-OXO-5-(tetrahydrofuran-2-yl)-1,6-dihydropyridine-3-carboxamide] is not above 5 µM; for `CCc1ccc2c(c1)[C@@H](NC[C@@H](O)[C@H](Cc1ccccc1)NC(=O)C1CN(Cc3ccccc3)CCO1)CC1(CCCC1)O2` (stereo partly drawn) [Example 29, 4-Benzyl-N-((2S,3R)-4-((S)-6-ethyl-2,2-spirocyclopentylchroman-4-ylamino)-3-hydroxy-1-phenylbutan-2-yl) morpholine-2-carboxamide] it is not above 5 µM; for `CC(C)c1ccc2c(c1)[C@@H](NC[C@@H](O)[C@H](Cc1ccccc1)NC(=O)C1CCCN(c3ccccn3)C1)CC1(CCCC1)O2` (stereo partly drawn) [Example 32, N-((2S,3R)-3-hydroxy-4-((S)-6-isopropyl-2,2-spirocyclopentylchroman-4-ylamino)-1-phenylbutan-2-yl)-1-(pyridin-2-yl)piperidine-3-carboxamide] it is not above 5 µM.
The result for `CCc1ccc2c(c1)[C@@H](NC[C@@H](O)[C@H](Cc1ccccc1)NC(=O)C1CN(C3CCCC3)c3ccccc3O1)CC1(CCCC1)O2` (stereo partly drawn) [Example 43, 4-Cyclopentyl-N-((2S,3R)-4-((S)-6-ethyl-2,2-spirocyclopentylchroman-4-ylamino)-3-hydroxy-1-phenylbutan-2-yl)-3,4-dihydro-2H-benzo[b][1,4]oxazine-2-carboxamide] reads not above 5 µM; that for `CCc1ccc2c(c1)[C@@H](NC[C@@H](O)[C@H](Cc1ccccc1)NC(=O)[C@H]1CN(C)c3ccccc3O1)CC1(CCCC1)O2` [Example 47, (R)—N-((2S,3R)-4-((S)-6-ethyl-2,2-spirocyclopentylchroman-4-ylamino)-3-hydroxy-1-phenylbutan-2-yl)-4-methyl-3,4-dihydro-2H-benzo[b][1,4]oxazine-2-carboxamide], not above 5 µM.
Regarding `CCc1ccc2c(c1)[C@@H](NC[C@@H](O)[C@H](Cc1ccccc1)NC(=O)C1CN(C)c3ccccc3O1)CC1(CCCC1)O2` (stereo partly drawn) [Example 48, (S)—N-((2S,3R)-4-((S)-6-ethyl-2,2-spirocyclopentylchroman-4-ylamino)-3-hydroxy-1-phenylbutan-2-yl)-4-methyl-3,4-dihydro-2H-benzo[b][1,4]oxazine-2-carboxamide], the IC50 was not above 5 µM.
`CCc1ccc2c(c1)[C@@H](NC[C@@H](O)[C@H](Cc1ccccc1)NC(=O)C1Cc3ccccc3N(C)C1)CC1(CCCC1)O2` (stereo partly drawn) [Example 49, N-((2S,3R)-4-((S)-6-ethyl-2,2-spirocyclopentylchroman-4-ylamino)-3-hydroxy-1-phenylbutan-2-yl)-1-methyl-1,2,3,4-tetrahydroquinoline-3-carboxamide]: the IC50 was not above 5 µM.
Consider `CCc1ccc2c(c1)[C@@H](NC[C@@H](O)[C@H](Cc1ccccc1)NC(=O)[C@H]1CN(C(C)=O)c3ccccc3O1)CC1(CCCC1)O2` [Example 50, (R)-4-acetyl-N-((2S,3R)-4-((S)-6-ethyl-2,2-spirocyclopentylchroman-4-ylamino)-3-hydroxy-1-phenylbutan-2-yl)-3,4-dihydro-2H-benzo[b][1,4]oxazine-2-carboxamide], for which the IC50 was not above 5 µM.
